Laboratory results: PubChem BioAssay AID330 (DTP/NCI, 2004)
Several values for one entry are separate records, joined by “and”; a condition that tells them apart may be missing. Identical values can stand only once. Inconclusive results and toxic doses are left out. The calls were made as follows: active = survival T/C of 150% or more; inactive = T/C below 125% in these data. Peptide text beside a SMILES is read from it.

Test system: P388 leukemia ip, CD2F1 mice, survival T/C
Assay: NCI In Vivo Anticancer Drug Screen. Data for tumor model P388 Leukemia (intraperitoneal) in CD2F1 (CDF1) mice
Conditions: endpoint: median survival time, higher = longer survival
Summary of the method: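 Mice carrying the transplanted tumor received test compound or vehicle. Survival was recorded in each group, and the value is the treated-group measurement divided by that of the vehicle-treated control group.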

[1] = dose: 100.0 mg/kg/injection, schedule: Q01DX009 (ip), vehicle: saline with Tween-80
[2] = dose: 200.0 mg/kg/injection, schedule: Q01DX009 (ip), vehicle: saline with Tween-80
[3] = dose: 400.0 mg/kg/injection, schedule: Q01DX009 (ip), vehicle: saline with Tween-80
[4] = dose: 100.0 mg/kg/injection, schedule: Q04DX003 (ip), vehicle: saline with Tween-80
[5] = dose: 200.0 mg/kg/injection, schedule: Q04DX003 (ip), vehicle: saline with Tween-80
[6] = dose: 100.0 mg/kg/injection, schedule: Q01DX009 (ip), vehicle: saline
[7] = dose: 200.0 mg/kg/injection, schedule: Q01DX009 (ip), vehicle: saline
[8] = dose: 50.0 mg/kg/injection, schedule: Q01DX005 (ip), vehicle: saline with Tween-80
[9] = dose: 100.0 mg/kg/injection, schedule: Q01DX005 (ip), vehicle: saline with Tween-80
[10] = dose: 200.0 mg/kg/injection, schedule: Q01DX005 (ip), vehicle: saline with Tween-80
[11] = dose: 25.0 mg/kg/injection, schedule: Q01DX009 (ip), vehicle: saline
[12] = dose: 50.0 mg/kg/injection, schedule: Q01DX009 (ip), vehicle: saline
[13] = dose: 60.0 mg/kg/injection, schedule: Q01DX005 (ip), vehicle: Klucel (hydroxypropylcellulose) (HPC)
[14] = dose: 120.0 mg/kg/injection, schedule: Q01DX005 (ip), vehicle: Klucel (hydroxypropylcellulose) (HPC)
[15] = dose: 240.0 mg/kg/injection, schedule: Q01DX005 (ip), vehicle: Klucel (hydroxypropylcellulose) (HPC)
[16] = dose: 50.0 mg/kg/injection, schedule: Q01DX005 (ip), vehicle: Klucel (hydroxypropylcellulose) (HPC)
[17] = dose: 100.0 mg/kg/injection, schedule: Q01DX005 (ip), vehicle: Klucel (hydroxypropylcellulose) (HPC)
[18] = dose: 200.0 mg/kg/injection, schedule: Q01DX005 (ip), vehicle: Klucel (hydroxypropylcellulose) (HPC)
[19] = dose: 12.5 mg/kg/injection, schedule: Q04DX003 (ip), vehicle: saline
[20] = dose: 25.0 mg/kg/injection, schedule: Q01DX001 (ip), vehicle: saline with Tween-80
[21] = dose: 50.0 mg/kg/injection, schedule: Q01DX001 (ip), vehicle: saline with Tween-80
[22] = dose: 100.0 mg/kg/injection, schedule: Q01DX001 (ip), vehicle: saline with Tween-80
[23] = dose: 200.0 mg/kg/injection, schedule: Q01DX001 (ip), vehicle: saline with Tween-80

Measured: T/C

Cc1ccc(NS(=O)(=O)c2ccc([N+](=O)[O-])cc2)c(C)c1
inactive: [1] 100 % of control | [2] 105 % of control | [3] 115 % of control

[Cl][Sn]1([Cl])[N]2CCCCC2C2CCCC[N]21 (stereo not drawn)
inactive: [4] 97 % of control | [5] 99 % of control

C=CCS(=O)(=O)O
inactive: [6] 100 % of control | [7] 104 % of control | dose: 400.0 mg/kg/injection, schedule: Q01DX009 (ip), vehicle: saline 100 % of control

Nc1nc(N)c2ncn(-c3ccc(Br)cc3)c2n1
inactive: [8] 95 % of control | [9] 92 % of control | [10] 91 % of control

COCCn1c(=O)[nH]c(=O)c2c(Nc3ccccc3)snc21
inactive: [11] 100 % of control and 93 % of control | [12] 98 % of control and 99 % of control and 89 % of control | [1] 95 % of control | [6] 98 % of control and 112 % of control and 97 % of control | [2] 100 % of control | [7] 99 % of control

CC(C)C(NC(=O)C1CCCN1)C(=O)O (stereo not drawn) (H-Pro-Val-OH; configuration not given here)
inactive: [12] 103 % of control | [6] 99 % of control | [7] 100 % of control

CC1Cc2c([nH]c(=O)n(-c3ccccc3)c2=S)O1 (stereo not drawn)
inactive: dose: 25.0 mg/kg/injection, schedule: Q01DX001 (ip), vehicle: Klucel (hydroxypropylcellulose) (HPC) 96 % of control | dose: 50.0 mg/kg/injection, schedule: Q01DX001 (ip), vehicle: Klucel (hydroxypropylcellulose) (HPC) 112 % of control | dose: 100.0 mg/kg/injection, schedule: Q01DX001 (ip), vehicle: Klucel (hydroxypropylcellulose) (HPC) 100 % of control

COc1ccc(C(OC)C2CCCCC2N2CCCCC2)cc1 (stereo not drawn)
inactive: dose: 0.5 mg/kg/injection, schedule: Q01DX009 (ip), vehicle: Klucel (hydroxypropylcellulose) (HPC) 107 % of control | dose: 1.0 mg/kg/injection, schedule: Q01DX009 (ip), vehicle: Klucel (hydroxypropylcellulose) (HPC) 114 % of control | dose: 2.0 mg/kg/injection, schedule: Q01DX009 (ip), vehicle: Klucel (hydroxypropylcellulose) (HPC) 107 % of control | dose: 4.0 mg/kg/injection, schedule: Q01DX009 (ip), vehicle: Klucel (hydroxypropylcellulose) (HPC) 109 % of control

O=[N+]([O-])c1ccc(N2N=NC(CN3CCOCC3)C2N2CCOCC2)cc1 (stereo not drawn)
inactive: [13] 111 % of control | [14] 117 % of control | [15] 118 % of control

NC(=O)/C(N=Nc1ccccc1S(=O)(=O)O)=N/Nc1ccccc1S(=O)(=O)O
inactive: [16] 100 % of control | [17] 101 % of control and 92 % of control | [18] 101 % of control and 94 % of control

CCCCCCCCCCCCC[N+]1([O-])CCOCC1
inactive: dose: 12.5 mg/kg/injection, schedule: Q01DX009 (ip), vehicle: saline 101 % of control | [11] 100 % of control | [12] 89 % of control and 96 % of control

CCCCCCCCCCCCCCCC[N+](C)(C)CCSCC(N)=O
inactive: [19] 109 % of control | dose: 50.0 mg/kg/injection, schedule: Q04DX003 (ip), vehicle: saline 111 % of control and 121 % of control

COc1ccc(C2NC(C(=O)O)CS2)cc1OC (stereo not drawn)
inactive: dose: 50.0 mg/kg/injection, schedule: Q01DX009 (ip), vehicle: suspension in saline 95 % of control | dose: 100.0 mg/kg/injection, schedule: Q01DX009 (ip), vehicle: suspension in saline 95 % of control | dose: 200.0 mg/kg/injection, schedule: Q01DX009 (ip), vehicle: suspension in saline 87 % of control and 97 % of control

Fc1ccccc1N/N=c1\nnc2ccccc2s1
inactive: dose: 50.0 mg/kg/injection, schedule: Q04DX002 (ip), vehicle: saline with Tween-80 97 % of control | dose: 100.0 mg/kg/injection, schedule: Q04DX002 (ip), vehicle: saline with Tween-80 93 % of control | dose: 200.0 mg/kg/injection, schedule: Q04DX002 (ip), vehicle: saline with Tween-80 92 % of control

COc1ccc(C(c2cc3c(cc2O)OCO3)N2CCN(C(c3ccc(OC)c(OC)c3)c3cc4c(cc3O)OCO4)CC2)cc1OC (stereo not drawn)
inactive: [13] 89 % of control | [14] 90 % of control | [15] 105 % of control

C=C1C(=O)OC2C1C(OC(=O)/C(C)=C\C)CC1(CO1)C1C(O)C=C(C)C21O (stereo not drawn)
inactive: dose: 25.0 mg/kg/injection, schedule: Q04DX003 (ip), vehicle: saline with Tween-80 112 % of control | dose: 50.0 mg/kg/injection, schedule: Q04DX003 (ip), vehicle: saline with Tween-80 113 % of control

COS(=O)(=O)N(C)c1nc(N(C)C)nc(N(C)C)n1
inactive: dose: 50.0 mg/kg/injection, schedule: Q01DX005 (ip), vehicle: saline 96 % of control | dose: 100.0 mg/kg/injection, schedule: Q01DX005 (ip), vehicle: saline 108 % of control

COC(=O)/C=C\C=C(\CBr)C(=O)OC
inactive: dose: 6.25 mg/kg/injection, schedule: Q01DX009 (ip), vehicle: saline with Tween-80 91 % of control | dose: 6.25 mg/kg/injection, schedule: Q04DX003 (ip), vehicle: saline 110 % of control | dose: 12.5 mg/kg/injection, schedule: Q01DX009 (ip), vehicle: saline with Tween-80 95 % of control | [19] 110 % of control | dose: 25.0 mg/kg/injection, schedule: Q01DX009 (ip), vehicle: saline with Tween-80 91 % of control | dose: 25.0 mg/kg/injection, schedule: Q04DX003 (ip), vehicle: saline 110 % of control

O=C1CCC(N(Cc2ccccc2)Cc2ccccc2)C(=O)O1 (stereo not drawn)
inactive: dose: 100.0 mg/kg/injection, schedule: Q04DX003 (ip), vehicle: Klucel (hydroxypropylcellulose) (HPC) 112 % of control | dose: 200.0 mg/kg/injection, schedule: Q04DX003 (ip), vehicle: Klucel (hydroxypropylcellulose) (HPC) 109 % of control | dose: 400.0 mg/kg/injection, schedule: Q04DX003 (ip), vehicle: Klucel (hydroxypropylcellulose) (HPC) 100 % of control

CC(C)=CCC(OC(=O)C=C(C)C)c1cc(O)c2c(O)ccc(O)c2c1O.[Mn] (stereo not drawn)
inactive: [20] 111 % of control | [21] 108 % of control | [22] 111 % of control and 124 % of control | [23] 124 % of control

C=C(C)C(=O)Oc1ccccc1/C=C/C(=O)CCCCCC
inactive: [8] 98 % of control | [9] 96 % of control | [10] 88 % of control

Cc1ccccc1[B-]12OCC[N+]1(CNC(=O)c1ccccc1O)CCO2 (stereo not drawn)
inactive: [16] 106 % of control | [17] 105 % of control | [18] 105 % of control

CC1(O)CCC2C3CCC4CC(=O)CCC4(C)C3(F)C(O)CC21C (stereo not drawn)
inactive: [1] 100 % of control | [4] 100 % of control | [2] 100 % of control | [5] 100 % of control | [3] 95 % of control | dose: 400.0 mg/kg/injection, schedule: Q04DX003 (ip), vehicle: saline with Tween-80 100 % of control

CCC(c1ccc(Cl)cc1)C(C#N)c1ccc(Cl)cc1 (stereo not drawn)
inactive: dose: 50.0 mg/kg/injection, schedule: Q01DX009 (ip), vehicle: Klucel (hydroxypropylcellulose) (HPC) 108 % of control | dose: 100.0 mg/kg/injection, schedule: Q01DX009 (ip), vehicle: Klucel (hydroxypropylcellulose) (HPC) 104 % of control | dose: 200.0 mg/kg/injection, schedule: Q01DX009 (ip), vehicle: Klucel (hydroxypropylcellulose) (HPC) 102 % of control

COC(=O)C(Cc1ccccc1)NC(=O)C(Cc1cnc[nH]1)N(C(=O)OCc1ccccc1)C(=O)OCc1ccccc1 (stereo not drawn)
inactive: dose: 25.0 mg/kg/injection, schedule: Q01DX005 (ip), vehicle: saline with Tween-80 88 % of control | [8] 91 % of control | [9] 87 % of control | [10] 89 % of control

c1ccc(N2CCCCCN2c2ccccc2)cc1
inactive: [20] 100 % of control | [21] 100 % of control | [22] 100 % of control | [23] 92 % of control

NC1=C(C(=O)c2ccccc2)CCCC1
inactive: [12] 106 % of control | [6] 97 % of control | [7] 97 % of control

c1ccc(C2=NC(c3ccccc3)=NS(S3=NC(c4ccccc4)=NC(c4ccccc4)=N3)=N2)cc1 (stereo not drawn)
inactive: [8] 106 % of control | [9] 90 % of control | [10] 88 % of control
